# Laboratory results published in US20220088040A1, “Use of System XC-Inhibitor for Treating Statin-Induced Myalgia” (Exerkine Corporation, priority 2017, published 2022).
# Assays:
# [1] = test system: C2C12 myotubes; experiment: Glutamate efflux from C2C12 myotubes (Amplex Red glutamic acid assay of culture media); type: cell-based, murine; conditions: for effect on glutamate efflux caused by atorvastatin: sulfasalazine 20 μM, cysteamine bitartrate 100 and 300 μM, vitamin E 100 μM, coenzyme Q10 50 μM; for glutamate efflux levels: co-treated with atorvastatin 5 μM and sulfasalazine 20 μM
# [2] = test system: Sprague Dawley rats; experiment: Extramyocellular glutamate in rat gastrocnemius muscle by interstitial microdialysis; type: in vivo; conditions: 10 days, muscle dialysate (FIG. 6)
# [3] = test system: system Xc- subunit xCT; experiment: xCT protein content in C2C12 myotubes by chemiluminescent immunoblot; type: cell-based, murine; conditions: atorvastatin 5 μM
# [4] = test system: primary human fibroblasts; experiment: Glutamate efflux from primary human fibroblasts; type: cell-based; conditions: statin (atorvastatin 5 μM) (FIG. 3B)
# [5] = test system: primary human myoblasts; conditions: co-treatment of statin (atorvastatin 5 μM) with sulfasalazine 20 μM (FIG. 3A)
# [6] = 5 μM atorvastatin, combination 100 μM vitamin E + 35 μM coenzyme Q10, N-acetylcysteine 5 mM (FIG. 4)
# [7] = 7.5 μM atorvastatin, combination 100 μM vitamin E + 35 μM coenzyme Q10, N-acetylcysteine 5 mM (FIG. 5)
Compound,"effect on glutamate efflux caused by atorvastatin [1, 6]","effect on glutamate efflux caused by atorvastatin [1, 7]",other results
NCCS.O=C(O)C(O)C(O)C(=O)O (stereo not shown) [Cysteamine bitartrate],mitigated,mitigated,–
CC(=O)N[C@@H](CS)C(=O)O [N-acetylcysteine],substantially increased,substantially increased,–
CC(C)c1c(C(=O)Nc2ccccc2)c(-c2ccccc2)c(-c2ccc(F)cc2)n1CC[C@@H](O)C[C@@H](O)CC(=O)O [atorvastatin],–,–,"increase in extramyocellular glutamate concentrations compared with the Control group ([2]; atorvastatin 40 mg/kg/day oral): 21%; elevated xCT protein level ([3]; 24 hour time point (FIG. 1)): still present; elevation in xCT abundance ([3]; after 12 hours, vs vehicle (FIG. 1)): approximately 2 fold; extracellular glutamate concentrations [4]: no changes"
O=C(O)c1cc(/N=N/c2ccc(S(=O)(=O)Nc3ccccn3)cc2)ccc1O [sulfasalazine],inhibited,inhibited,"glutamate efflux levels ([1]; 6 hour time point (FIG. 2)): initial increase; glutamate efflux levels ([1]; 12 hour to 24 hour time points (FIG. 2)): declined to baseline levels; glutamate efflux ([1]; sulfasalazine alone 20 μM, throughout the 0-24 h treatment period (FIG. 2)): around those of baseline values; extramyocellular glutamate concentrations, lower than Control ([2]; atorvastatin 40 mg/kg/day with sulfasalazine 200 mg/kg/day oral): 19%; glutamate efflux / extracellular glutamate levels [5]: blocked this efflux and further reduced extracellular glutamate levels to those below the vehicle control group"
COc1c(O)c(C)c(C/C=C(\C)CC/C=C(\C)CC/C=C(\C)CC/C=C(\C)CC/C=C(\C)CC/C=C(\C)CC/C=C(\C)CC/C=C(\C)CC/C=C(\C)CCC=C(C)C)c(O)c1OC [ubiquinol],mitigated,mitigated,–
vitamin E,mitigated,mitigated,–
